# Reference: US6737383B1, “Herbicidal oxadiazolidines” (priority 1999, dated 2004)
# Assays:
# [1] = system: bedstraw; test: Test B pre/postemergence bedstraw; type: in vivo, Galium aparine
# Outline: (§1)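 Test chemicals in a non-phytotoxic solvent mixture with surfactant were sprayed preemergence onto planted seeds and postemergence onto plants 2 to 18 cm tall (1- to 4-leaf stage). After twelve to sixteen days in a greenhouse, injury was visually rated against untreated controls from 0 (no effect) to 10 (complete control).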
# [2] = system: blackgrass; test: Test B pre/postemergence blackgrass; type: in vivo, Alopecurus myosuroides
# Outline: as §1
# [3] = system: surinam grass; test: Test B pre/postemergence surinam grass; type: in vivo, Brachiaria decumbens
# Outline: as §1
# [4] = system: corn; test: Test B pre/postemergence corn; type: in vivo, Zea mays
# Outline: as §1
# [5] = system: giant foxtail; test: Test B pre/postemergence giant foxtail; type: in vivo, Setaria faberii
# Outline: as §1
# [6] = system: morningglory; test: Test B pre/postemergence morningglory; type: in vivo, Ipomoea hederacea
# Outline: as §1
# [7] = system: pigweed; test: Test B pre/postemergence pigweed; type: in vivo, Amaranthus retroflexus
# Outline: as §1
# [8] = system: rape; test: Test B pre/postemergence rape; type: in vivo, Brassica napus
# Outline: as §1
# [9] = system: soybean; test: Test B pre/postemergence soybean; type: in vivo, Glycine max
# Outline: as §1
# [10] = system: sugar beet; test: Test B pre/postemergence sugar beet; type: in vivo, Beta vulgaris
# Outline: as §1
# [11] = system: velvetleaf; test: Test B pre/postemergence velvetleaf; type: in vivo, Abutilon theophrasti
# Outline: as §1
# [12] = system: purple nutsedge; test: Test B pre/postemergence purple nutsedge; type: in vivo, Cyperus rotundus
# Outline: as §1
# [13] = system: rice; test: Test B flood test rice; type: in vivo, Oryza sativa; conditions: Pre-emergence
# Outline: (§2)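 Plants were grown to the 2-leaf stage before treatment with test chemical, then held in a greenhouse for twelve to sixteen days. Injury was visually rated against untreated controls on a 0–10 scale, where 0 is no effect and 10 is complete control.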
# [14] = system: smallflower flatsedge; test: Test B flood test smallflower flatsedge; type: in vivo, Cyperus difformis; conditions: Pre-emergence
# Outline: as §2
# [15] = system: duck salad; test: Test B flood test duck salad; type: in vivo, Heteranthera limosa; conditions: Pre-emergence
# Outline: as §2
# [16] = system: bamyardgrass; test: Test B flood test barnyardgrass; type: in vivo, Echinochloa crus-galli; conditions: Pre-emergence
# Outline: as §2
# [17] = Postemergence, Rate 125 g/ha, scale 0 to 10, 0 is no effect, 10 is complete control
# [18] = Preemergence, Rate 62 g/ha, scale of 0 to 10 where 0 is no effect and 10 is complete control
# [19] = Preemergence, Rate 250 g/ha, scale of 0 to 10 where 0 is no effect and 10 is complete control
# [20] = Rate 62 g/ha, Postemergence, scale 0 to 10, 0 no effect, 10 complete control
# [21] = Rate 250 g/ha, Postemergence, scale of 0 to 10 where 0 is no effect and 10 is complete control
# [22] = Preemergence, Rate 500 g/ha, scale of 0 to 10 where 0 is no effect and 10 is complete control
# [23] = Rate 500 g/ha, Postemergence, scale 0 to 10, 0 no effect, 10 complete control
# [24] = Rate 1000 g/ha, scale 0 to 10 (0 no effect, 10 complete control)
# [25] = Rate 125 g/ha, flood test species, scale 0 to 10 where 0 is no effect and 10 is complete control
# [26] = Rate 250 g/ha, flood-test species, scale 0 to 10, 0 is no effect, 10 is complete control
# [27] = Rate 500 g/ha, flood test species, scale 0 to 10 (0 no effect, 10 complete control)
structure (smiles),measurement,setting,value
CC(C)N(C(=O)n1oc(=O)n(-c2ccc3ccccc3c2)c1=O)c1ccccc1 [Compound 332],"Plant response rating, Bedstraw",[1]; [17],0
same,Bedstraw plant response rating,[1]; [18],0
same,Bedstraw plant response rating (0 to 10 scale),"[1]; Preemergence, Rate 125 g/ha",0
same,Bedstraw plant response rating,[1]; [19],0
same,Bedstraw plant response rating,[1]; [20],0
same,"Plant response rating, Bedstraw",[1]; [21],0
same,"Plant response rating, Blackgrass",[2]; [17],0
same,Blackgrass plant response rating,[2]; [18],0
same,Blackgrass plant response rating (0 to 10 scale),"[2]; Preemergence, Rate 125 g/ha",0
same,Blackgrass plant response rating,[2]; [19],0
same,Blackgrass plant response rating,[2]; [22],0
same,Blackgrass plant response rating,[2]; [20],0
same,"Plant response rating, Blackgrass",[2]; [21],0
same,"Plant response rating, Blackgrass",[2]; [23],0
same,"Plant response rating, B. signalgrass",[3]; [17],0
same,B. signalgrass plant response rating,[3]; [18],0
same,"B. signalgrass plant response rating (0 to 10 scale, 0 is no effect, 10 is complete control)","[3]; Preemergence, Rate 125 g/ha",0
same,B. signalgrass plant response rating,[3]; [19],0
same,B. signalgrass plant response rating,[3]; [22],0
same,B. signalgrass plant response rating,[3]; [20],0
same,"Plant response rating, B. signalgrass",[3]; [21],0
same,"Plant response rating, B. signalgrass",[3]; [23],0
same,"Plant response rating, Corn",[4]; [17],0
same,Corn plant response rating,[4]; [18],0
same,Corn plant response rating (0 to 10 scale),"[4]; Preemergence, Rate 125 g/ha",0
same,Corn plant response rating,[4]; [19],0
same,Corn plant response rating,[4]; [22],0
same,Corn plant response rating,[4]; [20],0
same,"Plant response rating, Corn",[4]; [23],0
same,"Plant response rating, Giant foxtail",[5]; [17],0
same,Giant foxtail plant response rating,[5]; [18],0
same,Giant foxtail plant response rating (0 to 10 scale),"[5]; Preemergence, Rate 125 g/ha",1
same,Giant foxtail plant response rating,[5]; [19],4
same,Giant foxtail plant response rating,[5]; [22],7
same,Giant foxtail plant response rating,[5]; [20],0
same,"Plant response rating, Giant foxtail",[5]; [23],0
same,"Plant response rating, Morningglory",[6]; [17],0
same,Morningglory plant response rating,[6]; [18],0
same,Morningglory plant response rating (0 to 10 scale),"[6]; Preemergence, Rate 125 g/ha",0
same,Morningglory plant response rating,[6]; [19],0
same,Morningglory plant response rating,[6]; [22],0
same,Morningglory plant response rating,[6]; [20],0
same,"Plant response rating, Morningglory",[6]; [23],0
same,"Plant response rating, Redroot pigweed",[7]; [17],1
same,Redroot pigweed plant response rating,[7]; [18],0
same,Redroot pigweed plant response rating (0 to 10 scale),"[7]; Preemergence, Rate 125 g/ha",0
same,Redroot pigweed plant response rating,[7]; [19],0
same,Redroot pigweed plant response rating,[7]; [22],3
same,Redroot pigweed plant response rating,[7]; [20],0
same,"Plant response rating, Redroot pigweed",[7]; [23],4
same,"Plant response rating, Rape",[8]; [17],0
same,Rape plant response rating,[8]; [18],0
same,Rape plant response rating (0 to 10 scale),"[8]; Preemergence, Rate 125 g/ha",0
same,Rape plant response rating,[8]; [19],0
same,Rape plant response rating,[8]; [22],0
same,Rape plant response rating,[8]; [20],0
same,"Plant response rating, Rape",[8]; [23],0
same,"Plant response rating, Soybean",[9]; [17],2
same,Soybean plant response rating,[9]; [18],0
same,Soybean plant response rating (0 to 10 scale),"[9]; Preemergence, Rate 125 g/ha",0
same,Soybean plant response rating,[9]; [19],0
same,Soybean plant response rating,[9]; [22],0
same,Soybean plant response rating,[9]; [20],2
same,"Plant response rating, Soybean",[9]; [23],3
same,"Plant response rating, Sugarbeets",[10]; [17],0
same,Sugarbeets plant response rating,[10]; [18],0
same,Sugarbeets plant response rating (0 to 10 scale),"[10]; Preemergence, Rate 125 g/ha",0
same,Sugarbeets plant response rating,[10]; [19],0
same,Sugarbeets plant response rating,[10]; [22],0
same,Sugarbeets plant response rating,[10]; [20],0
same,"Plant response rating, Sugarbeets",[10]; [23],0
same,"Plant response rating, Velvetleaf",[11]; [17],0
same,Velvetleaf plant response rating,[11]; [18],0
same,Velvetleaf plant response rating (0 to 10 scale),"[11]; Preemergence, Rate 125 g/ha",0
same,Velvetleaf plant response rating,[11]; [19],0
same,Velvetleaf plant response rating,[11]; [22],0
same,Velvetleaf plant response rating,[11]; [20],0
same,"Plant response rating, Velvetleaf",[11]; [23],0
same,"Plant response rating, Nutsedge",[12]; [17],0
same,Nutsedge plant response rating,[12]; [18],0
same,Nutsedge plant response rating (0 to 10 scale),"[12]; Preemergence, Rate 125 g/ha",0
same,Nutsedge plant response rating,[12]; [19],0
same,Nutsedge plant response rating,[12]; [22],0
same,Nutsedge plant response rating,[12]; [20],0
same,"Plant response rating, Nutsedge",[12]; [23],0
same,Rice plant response rating,[13]; [24],0
same,Rice plant response rating,[13]; [25],0
same,Rice plant response rating,[13]; [26],0
same,Rice plant response rating,[13]; [27],0
same,S. Flatsedge plant response rating,[14]; [24],0
same,S. Flatsedge plant response rating,[14]; [25],0
same,S. Flatsedge plant response rating,[14]; [26],0
same,S. Flatsedge plant response rating,[14]; [27],0
same,Ducksalad plant response rating,[15]; [24],0
same,Ducksalad plant response rating,[15]; [25],0
same,Ducksalad plant response rating,[15]; [26],0
same,Ducksalad plant response rating,[15]; [27],0
same,Barnyardgrass plant response rating,[16]; [24],0
same,Barnyardgrass plant response rating,[16]; [25],0
same,Barnyardgrass plant response rating,[16]; [26],0
same,Barnyardgrass plant response rating,[16]; [27],0
